The melting point is the temperature of the solid-liquid transition. `COC(=O)Nc1cc(-c2ccc(S(C)(=O)=O)cc2)n(-c2ccc(F)cc2)n1` came in with a melting point of 225 to 227 °C.
Next, `CN1CCCC1=Nc1ncnc2c1ncn2[C@H]1C=C[C@@H](O)C1` (racemic): 135 to 138 °C.
As for `C=CCOc1ccc2c(C)cc(=O)oc2c1`, the figure is 110 °C; as for `O=C(Nc1ccc(Cl)c(C(F)(F)F)c1)N1NC(c2ccccc2)C(c2ccccc2)C1=O` (stereo not given), 72 to 74 °C.
Next, `COc1ccc(-c2nc(C(N)=O)oc2-c2ccc(OC)cc2)cc1`: 133 to 135 °C; `CC(=O)c1cccc(NC(=O)C2CCC2)c1`: 155 to 157 °C.
The compound `COC(=O)c1ccc(C=Cc2ccc(OC)cc2)nc1` registered a melting point of 170 °C.
Next, `COc1ccc2c(CCCC(=O)O)nnc(-c3nccs3)c2c1`: 218 to 220 °C; `CCCCCc1ccc(-c2ccc(OCCCC)c(N)c2)cc1`: 38 °C; `Cc1cc(COc2c(Cl)cc(C=O)cc2Cl)oc(=O)c1`: 180 °C.
As for `COC(=O)c1ccc2c(Br)cccc2c1`, the figure is 65 to 68 °C.
Next, `C=CCC(C#N)(C#N)Cc1ccc(OCC)cc1`: 84.3 °C; `Cc1ccc2c(c1)N=C(Cl)c1cscc1O2`: 208 to 209 °C.
Compound `O=C(NCC1CCCO1)c1cccc(-c2ccc3c(c2)C(c2cc(Cl)ccc2Cl)CC3)c1` (stereo not given) gave a melting point of 122 °C.
`O=C(Nc1cccc([N+](=O)[O-])c1)C(F)(F)C(F)(F)F` showed a melting point of 111 to 113 °C.
As for `CN(C)c1ccc(Nc2ccccc2)cc1`, the figure is 163 to 166 °C.
Next, `CCc1c(C)c2ccc(O)cc2oc1=O`: 201 to 203 °C; `CC(C)(C)OC(=O)N1C(Cc2ccccc2)SC[C@H]1C(=O)O` (stereo not given in full): 156 °C.
As for `COc1cc2c(c3c1OC(C)(C)C3)C(c1cccc(-c3ccc(N)nc3)c1)=NC(C)(C)C2`, the figure is 165 to 168 °C; as for `Cc1cc(COc2ccc(C(=O)NC[C@@H](C(=O)NO)N3CCN(Cc4ccc(F)cc4)CC3)cc2)c2ccccc2n1`, 167 °C.
For the compound `COC(=O)c1ccc2c(c1)ncn2-c1ccc(OC)c(C2CCCC2)c1`, the melting point fell in the range of 129 to 131 °C.
Next, `Cc1oc(-c2cccc(Br)c2)nc1CCO`: 92 to 93 °C; `O=CNCC1CCCc2cc(NS(=O)(=O)c3cccc(F)c3)ccc21` (stereo not given): 143 to 144 °C.
Take `Cc1c(Br)sc2cc(CO)ccc12`: the melting point turned out to be 91 °C.
Next, `CCCCOc1cc(/C=C(\OCC)C(=O)O)ccc1OCCc1ccc(NC(C)=O)cc1`: 160 °C.
Next, `CN(C)c1nc2cc(NC(=O)c3c(C(=O)N4CCCC4)cnn3C)ccn2n1`: 199 to 201 °C.
As for `Cc1ccc(S(=O)(=O)OCCN2C(=O)c3cccc4cc5ccccc5c(c34)C2=O)cc1`, the figure is 240 °C; as for `O=C(c1ccc(O)cc1)c1nn(C2CCCC2)c2c(C(F)(F)F)cccc12`, 225 to 226 °C.
Compound `CCC(C(=O)N(C)C)n1nc(-c2ccccc2)c(C)c1C` (stereo not given) gave a melting point of 119 to 121 °C.
Next, `CCCCN(CCCC)CCCOc1ccc(-c2cn3cccc(C)c3n2)cc1C`: 63 to 66 °C.
Next, `CC(=O)Nc1ccc(Br)c2c1CCN(C(C)=O)C2`: 179 to 181 °C; `O=C(Nc1ccccc1)C1=C(c2ccccc2)C(c2ccccc2)OC1=O` (stereo not given): 148 to 150 °C.
As for `CC(C)(C)NC[C@H](Cc1ccc(OCc2ccccc2)cc1)NC(=O)OC(C)(C)C`, the figure is 77 to 79 °C; as for `O=C(CCNc1c(C(=O)O)[nH]c2cc(Cl)ccc12)c1ccc(F)cc1`, 248 to 250 °C.
The compound `Nc1ncnc2c1ncn2[C@@H]1O[C@H](CSCCO)[C@@H](O)[C@H]1O` returned a melting point of 198 to 201 °C.
Next, `Cc1ccc(S(=O)(=O)N2CCCC2c2ccncc2)cc1` (racemic): 158 °C; `Clc1ccc2[nH]cc(C3CCNCC3)c2c1`: 156 to 158 °C.
Compound `COCOc1cc(OC)ccc1C(=O)c1cccc(OCc2nc(-c3ccccc3)oc2C)c1` showed a melting point of 117 to 118 °C.
As to `CCC1(CC)OC(=O)N(CCC(C)(C)NC[C@H](O)c2ccc(O)c(NS(C)(=O)=O)c2)c2ccccc21`, the melting point turned out to be 168 °C.
Regarding `CCNS(=O)(=O)c1ccc(C2=C(c3cccc(F)c3)C(=O)C(C)(C)O2)cc1`, the melting point fell in the range of 113 to 114 °C.
In turn, `C#CCN(c1nc(C)n(-c2ccc(Cl)cc2Cl)n1)c1cc(C)ccc1OC` showed a melting point of 116 °C.
Next, `CCCCn1cc(/C=C(\Cc2cc3c(cc2OC)OCO3)C(=O)O)c(-c2ccc(OC)cc2OCc2ccccc2C(=O)O)n1`: 226 to 227 °C.
`NC(=NCC(F)(F)F)Nc1ccn(CCO)n1` had a melting point of 82 °C.
Consider `CCCn1c(=O)cc(Cl)n(Cc2ccc(-c3ccccc3C#N)cc2)c1=O`, for which the melting point was in the range of 146 to 147 °C.
As for `COC(=O)c1cc(CN=C=S)cc(CN=C=S)c1`, the figure is 67 to 69 °C; as for `O=C(NC1CCCCC1)c1ccn2nc(-c3ccccc3)c(-c3cccc(Cl)c3)c2n1`, 160 to 161 °C.
Next, `Cc1nc(C)c(CO)c(-c2ccc(F)cc2)n1`: 174 to 176 °C.
As for `Cc1cccc(C(=O)c2[nH]c3cc(Cl)ccc3c2N)c1`, the figure is 80 to 88 °C; as for `Cn1nc(-c2cc(Cl)c(F)cc2F)c(Cl)c1C(F)(F)F`, 50 to 51 °C; as for `COc1ccc(C2=NN(C3CCN(S(=O)(=O)CCNCC(O)c4ccc(O)c(CO)c4)CC3)C(=O)[C@@H]3CC=CC[C@H]23)cc1OC` (stereo not given in full), 97 to 99 °C.
Take `C#CCCCCCCCCOc1cccc(C(N)=O)c1`: the melting point is 111 to 112 °C.
Next, `O=C(NCCO)c1cccc(-c2ccc3ccn(Cc4ccc(Cl)cc4Cl)c3n2)c1`: 161 to 162 °C.
Next, `COc1ccc(-c2nc(-c3cccn3Cc3ccccc3)[nH]c2-c2ccc(OC)cc2)cc1`: 183 °C; `Cn1c(=O)[nH]c2cccc(I)c2c1=O`: greater than 300 °C.
Next, `O=C1Nc2cccc(/C=C/c3ccccc3Cl)c2/C1=C/c1ccc[nH]1`: 257 to 258 °C; `C#Cc1ccc(C)cc1CC(=O)O`: 98 to 101 °C; `c1ccc(Cn2c3ccccc3c3ccccc32)cc1`: 121 to 122 °C.
In turn, `COn1cc(-c2ccccc2)c(=O)c(-c2ccccc2)c1` registered a melting point of 165 °C.
As for `CCn1c(C)nc2cc(S(=O)(=O)c3cccc4cnccc34)c([N+](=O)[O-])cc21`, the figure is 245 to 250 °C; as for `CC(=O)CCCN1CC[C@H](CNC(=O)c2cc(Cl)c(N)c3c2OCC3)[C@H](O)C1` (relative stereo), 118 °C; as for `CCCCCCCCCCOc1cc(OCCCCCCCCCC)cc(C(=O)C(=O)OC)c1`, 49 to 50 °C.
As for `Cn1c(C(=O)O)c(-c2ccc(F)cc2)c2nccnc2c1=O`, the figure is 247 to 249 °C.
As to `CCOC(=O)C(=CNC1CC1)C(=O)c1cc(F)c(F)c(F)c1F`, the melting point fell in the range of 63 to 65 °C.
As for `COc1ccc2c(c1)C(=O)N(c1cnc3c(ccn3C)c1)C2`, the figure is 198 to 199 °C; as for `O=C(OCc1ccccc1)N1CCOc2cc(Oc3cc(Cl)ncn3)ccc21`, 110 °C; as for `N#Cc1nc(C#N)c(C#N)nc1C#N`, 274 to 276 °C.
The compound `CCOC(=O)c1c(CN2CCOCC2)nc2cc3c(cc2c1-c1ccc(OC)c(OC)c1)OCCO3` registered a melting point of 174 to 175 °C.
In the case of `CNc1ccc(OC)cc1[N+](=O)[O-]`, the melting point was 93 to 94 °C.
As to `COc1ccc(ON2CN=C(c3ccccc3F)O2)cc1`, the melting point was 99.1 °C.
In turn, `Cc1c(SCCCSCCO)ccnc1CNc1cnc2ccccc2c1` came in with a melting point of 125 to 126 °C.
`CCCCCCCCCCC1(CCCCCCCCCC)c2cc(Br)ccc2-c2ccc(Br)cc21` yielded a melting point of 38.1 to 38.4 °C.
As for `Cc1cc(C)c(-n2ccc3c(OCc4ccc(C(F)(F)F)cc4)nn(C)c(=O)c32)c(C)c1`, the figure is 178 to 180 °C; as for `COc1ccc(CN2C(=O)C(C)(c3cc(COCCO)ccc3Cl)c3cc(Cl)ccc32)c(OC)c1` (stereo not given), 53 °C; as for `CCc1cn(C2CC(N=[N+]=[N-])C(CO)O2)c(=O)[nH]c1=O` (stereo not given), 118 to 120 °C.
As for `Nc1nonc1-c1nc2ccccc2n1CC(=O)c1ccc(Cl)c([N+](=O)[O-])c1`, the figure is 198 to 200 °C; as for `Cc1cccc(-c2cc(Cl)cc3c2OC(CN=[N+]=[N-])C3)c1` (stereo not given), 48 to 50 °C; as for `CCCC[C@H](NC(=O)[C@H](CC(C)C)NC(=O)OC(C)(C)C)C(=O)CCCc1cccs1`, 70 to 72 °C.
As for `C=CCc1ccc2c(c1O)CCC(=O)N2c1ccccc1`, the figure is 177 to 178 °C; as for `CC(=O)NCCc1ccc(C=CC(=O)O)cc1`, 206 to 208 °C.
`C/C(=C(\C#N)C(=S)/N=C/N(C)C)N1CCCN(c2ccc(C(F)(F)F)cc2)CC1` displayed a melting point of 251 to 253 °C.
Compound `COC(=O)C1CCC2C3CCC4CC(OC(C)=O)C(OC)CC4(C)C3C(NC3CCCCC3)CC12C` (stereo not given) showed a melting point of 87 to 89 °C.
As for `O=C(O)c1c(Br)ccc(OCc2ccccc2Cl)c1OCc1ccccc1Cl`, the figure is 156 to 158 °C; as for `OC1(Cn2cncn2)CCCC1Cc1ccc(-c2ccccc2)cc1` (stereo not given), 145 to 148 °C; as for `O=C1CCC2=C1C(c1ccc(Cl)c(Cl)c1)C1=C(CCS1)N2` (stereo not given), greater than 260 °C.
As for `CCC1(C(=O)Nc2ccc(OC)cc2)CCCCC1C` (stereo not given), the figure is 107 °C.
Next, `CN1CCN(c2cccc(N)c2)C(=O)C1`: 139 to 140 °C; `O=C1C(c2ccccc2)=C(c2ccccc2)C(=O)N1c1ccccc1C(F)(F)F`: 152 to 153 °C; `O=c1c2ccccc2n(Cc2ccccc2)n2cccc12`: 146 to 148 °C.
Take `CCOC(=O)C(c1c(F)cc(C#N)cc1F)c1cc(C)c(C(=O)c2ccc(Cl)cc2)n1C` (stereo not given): the melting point fell in the range of 155 to 156 °C.
Next, `CCCCOC(=O)COc1ccc(C(=O)Nc2cccc(Cl)c2Cl)cc1`: 132 to 136 °C.

These data come from a melting point compilation (Tetko et al.; mined from patent text by program, amines drawn as free bases though some values may be those of a salt).
